Laboratory results from patent US6123964A, “Wet granulation formulation of a growth hormone secretagogue” (priority 1998, dated 2000).
Structures can show the parent of a compound that is named as a salt. Blank lines part the entries; values can stand above or below the molecule they belong to.

Columns and labels:
[1] = Stability of the compound in standard pharmaceutical formulations; format: physicochemical
[2] = Flow properties of bulk drug; format: physicochemical; details: as a bulk drug
growth hormone = experiment: Growth hormone secretagogue assay described by Smith, et al., Science, 260, 1640-1643 (1993); format: cell-based; details: assay of Smith et al., Science 1993
Excerpt: Such a result is indicative of the activity of the formulation of the present invention as a growth hormone secretagogue.

[3] = Hygroscopicity of wet crystals; format: physicochemical; details: wet crystals during filtration
Method: The volume of the solution of 15 from the previous step was adjusted to 60 L with ethyl acetate and EtOH (4.8 L) was added. The MsOH (316 mL) was added in 3 L of EtOAc at 45° C. To the deep red homogeneous solution was added 496 g of the title compound Form I seed (10% seed based on the weight of the free amine was employed). The temperature rose to ca. 48° C. and the reaction was aged at 52° C. for 1.5 hours. Analysis indicated complete conversion to the title compound (Form I). (At less than 10% seed longer age (>3 hours) was required). The slurry was allowed to cool to 20° C. overnight and was filtered in a centrifuge under N2. The cake was washed with 20 L of 8% EtOH in EtOAc. […] The batch was dried at 35° C. under vacuum to afford 2.7Kg (56% overall yield) of the title compound (Form I) (99.9 A % purity; <0.1% enantiomer).

physchem = format: physicochemical; details: solid state, initial compound present
Method: As a mimic of the tablet formulation process, a concentrated solution of N-[1(R)-[(1,2-dihydro-1-methanesulfonylspiro[3H-indole-3,4'-piperdin]-1'-yl)carbonyl]-2-(phenylmethyloxy)ethyl]-2-amino-2-methylpropanamide methanesulfonate (118 mg) in 120 μL 25% aqueous ethanol (980 mg/ml) was evaporated at 40° C. to give a solid. The lack of crystallinity was confirmed by X-ray analysis.
After 12 weeks at 40° C., 100% of the initial compound was present; after 12 weeks at 60° C., 99.7% of the initial compound was present; after 12 weeks at 80° C., 97.8% of the initial compound was present.

stability in standard pharmaceutical formulations [1]: relatively unstable | flow properties [2]: poor flow properties
SMILES: CC(C)(N)C(=O)N[C@H](COCc1ccccc1)C(=O)N1CCC2(CC1)CN(S(C)(=O)=O)c1ccccc12 [active ingredient, N-[1(R)-[(1,2-dihydro-1-methane-sulfonyl-spiro[3H-indole-3,4'-piperdin]-1'-yl)carbonyl)-2-(phenyl-methyl-oxy)ethyl]-2-amino-2-methyl-propanamide]
activity as a growth hormone secretagogue (growth hormone): had activity as a growth hormone secretagogue

hygroscopicity [3]: very hygroscopic
SMILES: CC(C)(N)C(=O)N[C@H](COCc1ccccc1)C(=O)N1CCC2(CC1)CN(S(C)(=O)=O)c1ccccc12 [Compound 16, N-[1(R)-[(1,2-Dihydro-1-methanesulfonylspiro[3H-indole-3,4'-piperdin]-1'-yl)carbonyl]-2-(phenylmethyloxy)ethyl]-2-amino-2-methylpropanamide mesylate]

remaining at 2016 h (physchem): 100%
SMILES: CC(C)(N)C(=O)N[C@H](COCc1ccccc1)C(=O)N1CCC2(CC1)CN(S(C)(=O)=O)c1ccccc12 [amorphous form, N-[1(R)-[(1,2-dihydro-1-methanesulfonylspiro[3H-indole-3,4'-piperdin]-1'-yl)carbonyl]-2-(phenylmethyloxy)ethyl]-2-amino-2-methylpropanamide methanesulfonate]
